This note sets out measurements from US20110160056A1, “Triazole compounds, the use thereof and preparations containing these compounds” (BASF SE, priority 2008, published 2011).

One experiment relates to Septoria tritici. Briefly: Activity against the Septoria leaf blotch pathogen in the microtiter test. The class given is cell-based. The conditions noted are these: Zymoseptoria tritici, 168 h; 31 ppm active compound; absorption at 405 nm on day 7 after inoculation; relative to active compound-free control (100%). As for the experimental part:
The stock solution was pipetted into a microtiter plate (MTP) and diluted with water to the stated active compound concentration. An aqueous malt-based spore suspension of Septoria tritici was then added. The plates were placed in a water vapor-saturated chamber at temperatures of 18° C. Using an absorption photometer, the MTPs were measured at 405 nm on day 7 after the inoculation. The measured parameters were compared to the growth of the active compound-free control variant (100%) and the fungus- and active compound-free blank value to determine the relative growth in % of the pathogens in the individual active compounds.

The next experiment concerns Botrytis cinerea. Briefly: Activity against the gray mold pathogen in the microtiter test. The class given is cell-based. The conditions noted are these: 168 h, 31 ppm active compound, absorption at 405 nm on day 7 after inoculation, relative to active compound-free control.

Each structure is given as a SMILES string.

`Cc1cc(F)ccc1OCC(C(O)C(C)(C)C)n1cncn1` (stereo not drawn) [I.8]: the results for the relative pathogen growth at 31 ppm in the experiment on Septoria tritici and in the experiment on Botrytis cinerea were at most 14% and at most 13%, respectively.
The corresponding values for `CC(C)(C)C(O)C(CCCCOc1cc(Cl)ccc1F)n1cncn1` (stereo not drawn) [I.12b, 8-(5-chloro-2-fluorophenoxy)-2,2-dimethyl-4-[1,2,4]triazol-1-yloctan-3-ol] are at most 14% and at most 13%.
As for `CC(C)(C)C(O)C(COc1ccc(Cl)cc1Br)n1cncn1` (stereo not drawn) [I.32], the relative pathogen growth at 31 ppm with Botrytis cinerea is at most 13%.
As to `CC(C)(C)C(O)C(COc1ccc(F)c(F)c1F)n1cncn1` (stereo not drawn) [I.40], the values for the relative pathogen growth at 31 ppm with Septoria tritici and with Botrytis cinerea were at most 14% and at most 13%, respectively.
As for `CC(C)(C)C(O)C(COc1cccc(C(F)(F)F)c1F)n1cncn1` (stereo not drawn) [I.45], the relative pathogen growth at 31 ppm with Septoria tritici is at most 14%; in the experiment with Botrytis cinerea, at most 13%.
